Tests used:
human STING (HAQ) = human STING (HAQ) (Homo sapiens, UniProt Q86WV6, G230A/H232R/R293Q); assay: Differential scanning fluorimetry (DSF), huSTING (HAQ); assay type: binding; conditions: 2 μM protein, compound 100 μM; Tm with ligand minus Tm of protein alone (1% DMSO); read-out: DSF huSTING (HAQ) ΔTm (° C.)
Protocol: Biophysical experiments were performed with three different recombinant human STING protein variants designated according to allelic nomenclature of Yi et al., (2013). […] These were ligated into a modified pET43a E. coli expression vector designed to encode N-terminal His tag followed by tobacco etch virus protease (TEV) cleavage site and a STING gene sequence. The resulting protein sequences for the three allelic variants are listed below: […] Cultures were then cooled to 16° C. and protein expression induced by the addition of isopropyl β-D-1-thiogalactopyranoside to a final concentration of 0.5 mM and the cultures shaken overnight for further 16 hours. Following expression, cell cultures were centrifuged at 5000×g for 20 min and cell pellet stored frozen at −70° C. Protein purification was initiated by thawing the cell pellet in Lysis buffer (25 mM Tris-HCl pH 8.0, 300 mM NaCl, 5 mM DTT, 2 mM MgCl2, 10 mM imidazole, 0.5 mg/ml lysozyme, benzonase endonuclease [EMD Millipore], 1 mM PMSF, complete protease inhibitor tablets EDTA-free [Roche]) using a ratio of 7 ml of buffer per 1 g of cells. Cells were further lysed by 3 passes through an ice cooled Avestin C5 cell crusher and then centrifuged at 48,000×g at 4° C. […] The IMAC column was then sequentially washed with IMAC Wash buffer 1 and IMAC Wash buffer 2 (25 mM Tris-HCl pH 8.0, 300 mM NaCl, 5 mM DTT, 20 mM Imidazole) and bound His-TEV-hSTING protein eluted with IMAC Elution buffer (25 mM Tris-HCl pH 8.0, 300 mM NaCl, 5 mM DTT, 250 mM Imidazole). […] Differential scanning fluorimetry (DSF) is a rapid screening method for identifying low-molecular-weight ligands that bind and, in doing so, stabilize (or sometimes destabilize) purified proteins (Niesen 2007). DSF monitors thermal unfolding of protein in the presence of a fluorescent dye and is typically performed using a real-time PCR instrument. The temperature at which a protein unfolds is measured by an increase in the fluorescence of a dye with affinity for hydrophobic parts of the protein that are gradually being exposed during unfolding. The fluorescence of the dye is quenched in aqueous environments, but when the dye associates with hydrophobic sites on unfolded protein, its fluorescence increases. The fluorescence intensity is plotted as a function of the temperature, generating a sigmoidal curve that can be described by a two-state transition. The inflection point of the transition curve (Tm) is calculated using simple equations such as that of Boltzmann. Thermal stability of STING protein (with and without bound ligand) was measured using previously described methodology (Seabrook & Newman, 2013), with samples tested in triplicate using 96-well PCR microplate (AB Gene, ABGAB-0600/W). […] Sealed plates were placed into Bio-Rad CFX96/C1000 thermocycler and FRET scanning mode (λ^excitation of 490 nm and reads at a λ^emission of 570 nm). Melting curves were recorded from 20° C. to 100° C. in 0.5° C. increments every 30 seconds with a read at each increment. Data were analysed using “Meltdown analysis” protocol described by Rosa (2015).

[1] = target: human HAQ isoform of STING (THP-1 STING Lucia ISG cells) (Homo sapiens (Human), UniProt Q86WV6, G230A/H232R/R293Q/R71H); assay: THP-1 STING Lucia ISG reporter cell line assay; assay type: cell-based; conditions: 24 h incubation, QUANTI-Luc luminescence
Protocol: (§1) THP-1 STING Lucia ISG cells (InvivoGen #thpI-isg) were cultured in RPMI-1640 containing 2 mM L-glutamine, 25 mM HEPES, 100 μg/mL Normocin (InvivoGen) and 10% heat-inactivated FBS. Cells were seeded at a density of 7×10^5 cells/mL, maintained at 37° C./5% CO2, and passaged every 3-4 days. Selection pressure was maintained by the addition of 100 μg/mL Zeocin every second passage.
(§2) Assay conditions: cells were harvested and resuspended at a concentration of 5×10^5 cells/mL in fresh growth media. Of this cell preparation 20 μL per well was dispensed into 384 well cell culture plates (Greiner, #781098X) and incubated at 37° C./5% CO2 for 2 hours. Concentration Response Curves (commonly 11 doses) were prepared by 2.5 fold serial dilution starting from 10 mM compound stock solution in DMSO. Compound dilutions were transferred into the cell culture plates using a pintool (0.1 μL transfer), control wells were matched for DMSO. Positive control wells received ML RR—S2 CDA (Med Chem Express HY12885B) in 5 μL of media to a final concentration of 40 μM. All other wells received additional 5 μL of media only to equalise volume. The plates were incubated for 24 h at 37° C./5% CO2.
(§3) For the detection step, QUANTI-Luc (InvivoGen #rep-qlc1) was prepared according to manufacturer's instruction and 10 μL were added per well to the culture plates. Plates were shaken for ten seconds on an orbital shaker and left in the dark at room temperature for two minutes, before luminescence was read on a Perkin Elmer Envision plate reader.
(§4) Data analysis: Luminescence raw data was normalised % activity relative to the signal of the positive control wells and negative control wells which were not treated with compound. The following formula was used to calculate normalised % activity from raw signals: % activity=(sample−negative)/(positive−negative)
(§5) The THP-1 STING Lucia ISG cell EC50 provides an assessment of activity at the human HAQ isoform of STING. For assessing compound activity against the WT human STING isoform, an equivalent method was conducted where the cells used were THP-1-Dual KI-hSTING-R232 (InvivoGen #thpd-r232).

[2] = target: WT human STING isoform (THP-1-Dual KI-hSTING-R232 cells) (Homo sapiens (Human), UniProt Q86WV6, H232R); assay: THP-1-Dual KI-hSTING-R232 reporter cell line assay; assay type: cell-based; conditions: 24 h incubation, QUANTI-Luc luminescence
Protocol: as §1, §2, §3, §4, §5

Sequence of human STING (HAQ) (Q86WV6 whole entry G230A/H232R/R293Q, looked up): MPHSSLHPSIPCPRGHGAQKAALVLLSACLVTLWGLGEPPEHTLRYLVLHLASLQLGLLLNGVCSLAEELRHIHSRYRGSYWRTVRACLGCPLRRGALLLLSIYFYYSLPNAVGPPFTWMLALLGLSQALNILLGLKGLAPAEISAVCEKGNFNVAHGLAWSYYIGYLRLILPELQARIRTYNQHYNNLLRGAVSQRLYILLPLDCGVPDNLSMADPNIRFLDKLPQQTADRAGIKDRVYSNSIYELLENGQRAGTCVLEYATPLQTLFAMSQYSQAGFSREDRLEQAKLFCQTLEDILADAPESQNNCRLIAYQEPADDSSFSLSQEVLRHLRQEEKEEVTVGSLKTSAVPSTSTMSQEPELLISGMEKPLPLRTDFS
Sequence of WT human STING isoform (THP-1-Dual KI-hSTING-R232 cells) (Q86WV6 whole entry H232R, canonical isoform): as the sequence (Q86WV6 whole entry G230A/H232R/R293Q, looked up) above, with A230G, Q293R counted along it
Sequence of human HAQ isoform of STING (THP-1 STING Lucia ISG cells) (Q86WV6 whole entry R71H/G230A/H232R/R293Q, canonical isoform): as the sequence (Q86WV6 whole entry G230A/H232R/R293Q, looked up) above, with R71H counted along it

Row | Compound | ΔTm at 100 µM (human STING (HAQ)) [°C] | EC50 [1] [µM] | EC50 [2] [µM]
1 | COc1c(C(N)=O)ccc2c1nc(-c1ccc(C(F)(F)F)cc1C(=O)O)n2CCn1c(-c2ccc(C(F)(F)F)cc2C(=O)O)nc2c(OC)c(C(N)=O)ccc21 [Example 38, 6,6′-(Ethane-1,2-diylbis(5-carbamoyl-4-methoxy-1H-benzo[d]imidazole-1,2-diyl))bis(3-(trifluoromethyl)benzoic acid)] | 3.68 | > 40 | > 40
2 | COc1c(C(N)=O)ccc2c1nc(-c1ccc(Cl)cc1C(=O)O)n2C/C=C/Cn1c(-c2ccc(Cl)cc2C(=O)O)nc2c(OC)c(C(N)=O)ccc21 [Example 34, (E)-6,6′-(But-2-ene-1,4-diylbis(5-carbamoyl-4-methoxy-1H-benzo[d]imidazole-1,2-diyl))bis(3-chlorobenzoic acid)] | 0.49 | > 40 | > 40
3 | COc1c(C(N)=O)ccc2c1nc(-c1ccc(Cl)cc1C(=O)O)n2CCCn1c(-c2ccc(Cl)cc2C(=O)O)nc2c(OC)c(C(N)=O)ccc21 [Example 35, 6,6′-(Propane-1,3-diylbis(5-carbamoyl-4-methoxy-1H-benzo[d]imidazole-1,2-diyl))bis(3-chlorobenzoic acid)] | 1.28 | > 40 | > 40
4 | NC(=O)c1ccc2c(c1)nc(-c1ccccc1-c1nn[nH]n1)n2CCn1c(-c2ccccc2-c2nnn[nH]2)nc2cc(C(N)=O)ccc21 [Example 5, 2-(2-(1H-Tetrazol-5-yl)phenyl)-1-(2-(2-(2-(2H-tetrazol-5-yl)phenyl)-5-carbamoyl-1H-benzo[d]imidazol-1-yl)ethyl)-1H-benzo[d]imidazole-5-carboxamide] | 6.04 | 24.8 | 6.4
5 | COc1c(C(N)=O)ccc2c1nc(-c1cc(Cl)ccc1-c1nn[nH]n1)n2CCn1c(-c2cc(Cl)ccc2-c2nn[nH]n2)nc2c(OC)c(C(N)=O)ccc21 [Example 42, 1,1′-(Ethane-1,2-diyl)bis(2-(5-chloro-2-(2H-tetrazol-5-yl)phenyl)-4-methoxy-1H-benzo[d]imidazole-5-carboxamide)] | 6.3 | 3.21 | 4.39
6 | COc1c(C(N)=O)cc(F)c2c1nc(-c1c(F)cc(F)cc1C(=O)O)n2CCn1c(-c2c(F)cc(F)cc2C(=O)O)nc2c(OC)c(C(N)=O)cc(F)c21 [Example 18, 2,2′-(Ethane-1,2-diylbis(5-carbamoyl-7-fluoro-4-methoxy-1H-benzo[d]imidazole-1,2-diyl))bis(3,5-difluorobenzoic acid)] | 19.1 | 0.326 | 0.566
7 | COc1c(C(N)=O)ccc2c1nc(-c1ccc(Cl)cc1-c1noc(=O)[nH]1)n2CCn1c(-c2ccc(Cl)cc2-c2noc(=O)[nH]2)nc2c(OC)c(C(N)=O)ccc21 [Example 32, 1,1′-(Ethane-1,2-diyl)bis(2-(4-chloro-2-(5-oxo-4,5-dihydro-1,2,4-oxadiazol-3-yl)phenyl)-4-methoxy-1H-benzo[d]imidazole-5-carboxamide)] | 3.99 | > 40 | 29.7
8 | COc1c(C(N)=O)ccc2c1nc(-c1c(F)cccc1C(=O)O)n2CCn1c(-c2c(F)cccc2C(=O)O)nc2c(OC)c(C(N)=O)ccc21 [Example 10, 2,2′-(Ethane-1,2-diylbis(5-carbamoyl-4-methoxy-1H-benzo[d]imidazole-1,2-diyl))bis(3-fluorobenzoic acid)] | 18.4 | 1.59 | 1.39
9 | COc1ccc(-c2nc3c(OC)c(C(N)=O)ccc3n2CCn2c(-c3ccc(OC)cc3C(=O)O)nc3c(OC)c(C(N)=O)ccc32)c(C(=O)O)c1 [Example 41, 6,6′-(Ethane-1,2-diylbis(5-carbamoyl-4-methoxy-1H-benzo[d]imidazole-1,2-diyl))bis(3-methoxybenzoic acid)] | 4.52 | > 40 | > 40
10 | COc1c(C(N)=O)cc(F)c2c1nc(-c1ccc(Cl)cc1C(=O)O)n2CCn1c(-c2ccc(Cl)cc2C(=O)O)nc2c(OC)c(C(N)=O)cc(F)c21 [Example 20, 6,6′-(Ethane-1,2-diylbis(5-carbamoyl-7-fluoro-4-methoxy-1H-benzo[d]imidazole-1,2-diyl))bis(3-chlorobenzoic acid)] | 3.69 | 1.3 | 2.78
11 | COc1c(C(N)=O)ccc2c1nc(-c1ccc(Cl)c(Cl)c1-c1nn[nH]n1)n2CCn1c(-c2ccc(Cl)c(Cl)c2-c2nn[nH]n2)nc2c(OC)c(C(N)=O)ccc21 [Example 37, 1,1′-(Ethane-1,2-diyl)bis(2-(3,4-dichloro-2-(2H-tetrazol-5-yl)phenyl)-4-methoxy-1H-benzo[d]imidazole-5-carboxamide)] | 2.8 | > 40 | > 40
12 | COc1c(C(N)=O)ccc2c1nc(-c1c(I)cccc1C(=O)O)n2CCn1c(-c2c(I)cccc2C(=O)O)nc2c(OC)c(C(N)=O)ccc21 (single isomer, unassigned) [Example 19.1, 2,2′-(Ethane-1,2-diylbis(5-carbamoyl-4-methoxy-1H-benzo[d]imidazole-1,2-diyl))bis(3-iodobenzoic acid)] | 31.7 | 0.297 | 0.232
13 | COc1c(C(N)=O)ccc2c1nc(-c1c(F)cccc1-c1n[nH]c(=O)o1)n2CCn1c(-c2c(F)cccc2-c2n[nH]c(=O)o2)nc2c(OC)c(C(N)=O)ccc21 [Example 49, 1,1′-(Ethane-1,2-diyl)bis(2-(2-fluoro-6-(5-oxo-4,5-dihydro-1,3,4-oxadiazol-2-yl)phenyl)-4-methoxy-1H-benzo[d]imidazole-5-carboxamide)] | 21.3 | 0.136 | 0.191
14 | COc1c(C(N)=O)ccc2c1nc(-c1ccc(Cl)cc1-c1cn[nH]n1)n2CCn1c(-c2ccc(Cl)cc2-c2cn[nH]n2)nc2c(OC)c(C(N)=O)ccc21 [Example 24, 1,1′-(Ethane-1,2-diyl)bis(2-(4-chloro-2-(2H-1,2,3-triazol-4-yl)phenyl)-4-methoxy-1H-benzo[d]imidazole-5-carboxamide)] | -0.08 | 2.67 | 4.19

Reference: patent publication US12415785B2, “Compound modulators of sting” (CTXT PTY LTD, priority 2019, dated 2025)
